Measurements as given in PMC6005341, “Identification of “sarsasapogenin-aglyconed” timosaponins as novel Aβ-lowering modulators of amyloid precursor protein processing” (Chemical Science, 2016).

Columns and labels:
[1] = system: APP processing in N2A-APPswe cells; assay: Immunoblot of APP processing in N2A-APPswe cells; type: cell-based
From the text: Reagents: All reagents were of analytical grade (purity > 98%) and were purchased from Sigma-Aldrich Chemical Co. unless otherwise specified. SSG (1) was purchased from Wako Pure Chemical Industries, Ltd. Diosgenin (6), Dioscin (9), Polyphyllin D (10), Timosaponin BI (22) and Timosaponin BII (23) were purchased from Chengdu Must Bio-Technology Co.
Ltd. Yamogenin (7) was bought from Ambinter c/o Greenpharma while Smilagenin (24) was bought from Steraloids Inc. Substances dissolved in DMSO as stock solutions. Cell culture medium constituents were purchased from Life Technologies, Inc.
Cell culture: Neuro-2A cells expressing Swedish mutants of APP (N2A-APPswe provided by Prof. Yifan Han, The Hong Kong Polytechnic University)1 was cultured in minimal essential medium with 2 mM glutamine, 2 mM pyruvate and 10% fetal bovine serum. Cells were seeded at 6-well plate at 1×106 cells/mL and grown for two days until confluence. […]
Immunoblot analysis: Cells were washed with phosphate buffered saline and lysed with buffer containing 50 mM Tris-Cl, pH 7.4, 150 mM NaCl, 1% Triton X-100 supplemented with protease inhibitors. Equal amount of proteins (30 µg) was resolved by 16.5% Tris-tricine gels and then transferred to nitrocellulose membrane with 0.2 µm pore size. For detection of secreted Aβ, sAPPα and  sAPPβ, cells were treated with the timosaponins for 8 h in complete medium which were then replaced with medium containing 0.1% FBS. After further incubation of 16 h, 50 µL of the conditioned medium was mixed with SDS sample buffer and resolved accordingly. The membrane was blocked with Tris-buffered saline containing 0.1% Tween 20 and 3% BSA and then incubated with primary antibodies at 4 °C overnight, followed with appropriate secondary antibodies for 2 h. The primary antibodies were: APP c-terminal rabbit antibody (1:5000; Merck Bioscience) for detection of full length APP and APP-CTFs, mouse monoclonal 6E10 (Covance) for secreted Aβ and sAPPα,  mouse monoclonal 6A1 (IBL) for sAPPβswe, ADAM-10 rabbit antibody (Millipore) and BACE1

β-secretase = biological target: T1, β-secretase (Mus musculus, UniProt P56818); assay: β-Secretase assay in N2A-APPswe cell protein extracts; type: biochemical
T1 construct: endogenous in cells; host or cells: N2A-APPswe (Neuro-2A stably expressing APP Swedish mutant)
T1 sequence (P56818 46-501): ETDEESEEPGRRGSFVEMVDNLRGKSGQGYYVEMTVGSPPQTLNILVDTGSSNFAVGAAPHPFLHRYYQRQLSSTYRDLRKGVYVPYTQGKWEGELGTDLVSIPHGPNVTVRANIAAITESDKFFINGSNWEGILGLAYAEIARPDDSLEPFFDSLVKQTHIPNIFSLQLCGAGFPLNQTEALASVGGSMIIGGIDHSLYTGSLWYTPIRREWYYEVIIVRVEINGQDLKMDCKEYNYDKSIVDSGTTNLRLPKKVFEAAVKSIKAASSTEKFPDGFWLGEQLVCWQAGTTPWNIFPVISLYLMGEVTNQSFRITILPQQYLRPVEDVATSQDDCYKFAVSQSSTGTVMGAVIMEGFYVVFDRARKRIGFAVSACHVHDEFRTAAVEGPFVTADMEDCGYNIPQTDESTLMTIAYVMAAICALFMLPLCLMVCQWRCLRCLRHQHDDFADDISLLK
Method: β-Secretase assays: Confluent N2A-APPswe cells were harvested and homogenized with 50
mM MES, pH5.5. Protein extracts (10 µg) were incubated with testing compounds or vehicle
for 1 h at room temperature. […]

[2] = Plasma and brain concentrations by LC-MS/MS; type: in vivo, mice; conditions: for Plasma Precursor: mice n = 6, three repeated oral doses 100 mg/kg in two days
Method: Animal experiments: Male C57BL/6N mice were housed in environmentally controlled room (temperature: 25 ± 2 °C, humidity: 50 ± 5%, 12-h light-dark cycle) in Laboratory Animal Unit, The University of Hong Kong and were freely access to food and water. TAIII, TAI SSG and compound 34 were dissolved in 5% Tween 80 and given to the mice by oral gavage at three repeated doses of 100 mg/kg in 48 hours. Mice were administrated with 5% Tween 80 (control group), TAIII, TAI SSG and 34. The experimental procedures were performed with the approval of Committee of Use of Live Animal for Teaching and Research of The University of Hong Kong. Blood (about 600-800 µL) was collected by cardiac puncture and added with 1/10 volume of Na2EDTA (20 mg/mL) to prevent coagulation. After centrifugation at 3000 g for 15 min at 4 °C, plasma was transferred to a centrifuge tube. The brain was dissected into two hemispheres on ice, weighed and frozen in liquid nitrogen immediately. The left brain was homogenized with 1 mL of buffer containing 5 M guanidine HCl, 50 mM Tris HCl, pH 8.0, with protease inhibitor cocktail and AEBSF using a Polytron and the homogenates were allowed to stand at room temperature for 3h. Both plasma and brain samples were stored at -80 °C until they were analyzed. […]
B. Determination of timosaponin levels in mice plasma and brain by ultra-high pressure liquid chromatography tandem mass spectrometry
The UPLC-ESI-QTOF consists of a Waters Q-TOF PremierTM mass spectrometer (Micromass MS Technologies, Manchester, UK) operated in positive ion mode and a Waters ACQUITY TM UPLC system. The mass spectrometer conditions were optimized as follows: source […]
temperature, 120 °C; desolvation temperature, 500 °C; nebulization gas flow rate, 1000 L/h; cone gas flow rate, 20 L/h; capillary voltage, 2.5 kV; sampling cone voltage, 28V. The data were collected into two separate data channels with the instrument spending 0.5 s on data acquisition for each channel and a 0.1 s inter-channel delay. The mass spectrometer was calibrated by using the solution of sodium formate (0.5 mM) and the TOF scan range was from 100 to 1000 Da. In order to improve mass measurement accuracy a lock mass compound (50 pg µL−1 solution of leucine encephalin; m/z 556.2771) was continuously infused at a 0.5 mL min-1 using the built-in syringe pump of the instrument.
Sample was loaded into a Waters ACQUITY TM BEH C18 column (100 × 2.1 mm i.d., 1.7 µM) connected to a Waters ACQUITY TM BEH C18 guard column (5 × 2.1 mm i.d., 1.7 µM). The gradient elution system consisted of 0.1% formic acid in water (A) and 0.1% formic acid in acetonitrile (B). Separation was achieved by using: 30%-55% B from 0 to 3 min; 55-100% B from 3 to 6 min; 100% B from 6 to 12 min and returned to initial conditions and equilibrated for 3 minutes. The flow rate was 0.3 mL/min and the injection volume was 5 µL.
Standard preparation and sample preparation
Stock solution (10 µM ) of each analyte was prepared by dissolving in methanol. They were subject to serial dilution to give calibration curves of SSG 1 (plasma: y = 8.7485× - 0.0676; […]
each concentration of each analyte was transferred to a centrifuge tube and evaporated to dryness by a concentrator. Dioscin (20 µL , 10 µM) was added as an internal standard followed by methanol (130 µL) and control plasma (50 µL). The mixture was vortexed for 5 s and centrifuged (15000 × g) for 15 min. The supernatant was collected and evaporated to dryness by a concentrator. Methanol (100 µL) was added and then vortexed again for 10 s and centrifuged (15000 × g) for 20 min. The supernatant (5 µL) was subject to LC-MS/MS analysis. Analyte-treated plasma, control brain and analyte-treated brain were prepared in a […]
The acquisition and processing of data were performed by Masslynx (version 4.1) software.
Mass window of ±10 mDa and mass resolution of 9000 were set for both molecular ions and product ions. MS full scan was applied to acquire high abundant molecular ions [M+H]+ with […]

[3] = any metabolite, mice n = 6, three oral doses 100 mg/kg in two days
[4] = mice n = 6, three oral doses 100 mg/kg in two days

SMILES | sAPPα levels ([1]; 100 μM) | α-CTF and β-CTF expression ([1]; 100 μM) | β-secretase activities in the cell extracts (β-secretase) | Brain Metabolite [2, 3] | Plasma Metabolite [2, 3] | Brain Precursor [2, 4] | Plasma Precursor [2] [µM] | expression of ADAM-10 [1] | expression of the β-secretase BACE1 [1] | α-secretase-cleaved CTF (C-83) and secreted APPα ([1]; 10 μM) | expression of full length APP ([1]; 18 h) | levels of β-secretase-cleaved CTF (C-99) and secreted APPβ ([1]; concentration-dependent)
C[C@H]1CC[C@@]2(OC1)O[C@H]1C[C@H]3[C@@H]4CC[C@@H]5C[C@@H](O)CC[C@]5(C)[C@H]4CC[C@]3(C)[C@H]1[C@@H]2C [SSG (1), sarsasapogenin] | marked increase | increased | no change | Not detected | Not detected | 1.042 ± 0.418 µM | 0.118 ± 0.062 |  |  |  |  | 
C[C@H]1CC[C@@]2(OC1)O[C@H]1C[C@H]3[C@@H]4CC[C@@H]5C[C@@H](O[C@@H]6O[C@H](CO)[C@H](O)[C@H](O)[C@H]6O)CC[C@]5(C)[C@H]4CC[C@]3(C)[C@H]1[C@@H]2C [TAI (3), timosaponin A I] |  |  |  |  |  | 1.174 ± 0.401 µM | 3.361 ± 0.925 |  |  |  |  | 
C[C@H]1CC[C@@]2(OC1)O[C@H]1C[C@H]3[C@@H]4CC[C@@H]5C[C@@H](O[C@@H]6O[C@H](CO)[C@H](O)[C@H](O)[C@H]6O[C@@H]6O[C@H](CO)[C@@H](O)[C@H](O)[C@H]6O)CC[C@]5(C)[C@H]4CC[C@]3(C)[C@H]1[C@@H]2C [TAIII (2), timosaponin A III] |  |  | did not affect |  |  | Not detected | 0.050 ± 0.058 | did not alter | did not affect | increased | did not elicit a change | decreased
